The values that follow are results of earlier work, collected in PMC8322648, “Brevibacillin 2V Exerts Its Bactericidal Activity via Binding to Lipid II and Permeabilizing Cellular Membranes” (Frontiers in Microbiology, 2021).

The conditions of series [1]: ref Zhao et al., 2021; cited from earlier work.
In series [2] the test system is membrane of Gram-positive bacteria. The settings on record: ref Yang et al., 2017; cited from earlier work. The source says: A vast number of bacterial non-ribosomally produced peptides (NRPs) have shown strong antimicrobial activity against pathogenic bacteria ([Cochrane et al., 2014]; [Cociancich et al., 2015]; [Hamamoto et al., 2015]; [Ling et al., 2015]; [Süssmuth and Mainz, 2017]). Lipo-tridecapeptides, a class of NRPs, show strong antimicrobial activity against Gram-positive pathogens, including antibiotic-resistant Staphylococcus aureus and Enterococcus spp. ([Barsby et al., 2001], [2006]; [Yang et al., 2016]; [Wu et al., 2019]; [Zhao et al., 2021]). However, many of these lipo-tridecapeptides have shown high ...

Consider Brevibacillin 2V, for which the “stability in human plasma” value in series [1] was “good stability in human plasma”.

Consider Brevibacillin, for which the membrane permeabilization entry in series [2] is recorded as “can permeabilize the membrane of Gram-positive bacteria”.
